Legend:
[1] = Stress stability evaluation for moisture (93% RH), HPLC purity; assay type: physicochemical; conditions: for Purity: 93% RH
From the text: (§1) To confirm the possibility of commercializing the novel crystalline form E of enavogliflozin of the present invention, the crystalline form A of enavogliflozin in Korean Unexamined Patent Application Publication No. 2017-0142904 was used as a control to test stress stability, and analyzed by high performance liquid chromatography (HPLC), and the results are shown in Tables 4 and 5.

[2] = Evaluation of hygroscopicity (weight change in desiccators at set relative humidity); assay type: physicochemical; conditions: for Weight change: two days or more, 60 mg
Protocol: The crystalline form A of enavogliflozin in the known Korean Unexamined Patent Application Publication No. 2017-0142904 and the enavogliflozin crystalline form E were taken in amounts of 60 mg each and placed in desiccators at relative humidity of 11%, 33%, 54%, 75%, and 93%, each for two days or more to absorb moisture, and then the weight change was measured.

[3] = Stress stability evaluation for heat (60° C.), HPLC purity; assay type: physicochemical; conditions: for Purity: 60° C.
From the text: as §1

[4] = Pharmacokinetic study in beagle dogs, oral administration; assay type: in vivo, beagle dog; conditions: 1 mg/kg
Protocol: Pharmacokinetic profiles of crystalline form A of enavogliflozin and the novel crystalline form E were to be confirmed in beagle dogs. The crystalline form A of enavogliflozin was set as a control, the novel crystalline form E was set as a comparison group, and each of the crystalline form A of enavogliflozin and the novel crystalline form E was orally administered to a male beagle dog at a dose of 1 mg/kg, and blood samples were collected before administration (0 hours), and at 0.083, 0.25, 0.5, 0.75, 1, 1.5, 2, 4, 6, 8, 12, and 24 hours (a total of 13 times). Blood drug concentrations were analyzed by LC-MS/MS using plasma separated from the collected samples, and pharmacokinetic parameters such as the maximum observed plasma concentration (Cmax), an area under the plasma concentration-time curve (AUClast and AUCinf), a time-to-maximum observed plasma concentration (Tmax), and a half-life (T1/2) were calculated and interpreted using the WinNonlin 5.0.1 program.

[5] = beagle dog, relative to crystalline form A

SMILES	Purity ([1]; Initial, HPLC) [%]	Purity ([1]; Week 2, HPLC) [%]	Purity ([1]; Week 4, HPLC) [%]	Weight change ([2]; relative humidity 11%) [%]	Weight change ([2]; relative humidity 33%) [%]	Weight change ([2]; relative humidity 54%) [%]	Weight change ([2]; relative humidity 75%) [%]	Weight change ([2]; relative humidity 93%) [%]	Purity ([3]; Initial, HPLC) [%]	Purity ([3]; Week 2, HPLC) [%]	Purity ([3]; Week 4, HPLC) [%]	Purity ([3]; Week 8, HPLC) [%]	other results
OC[C@H]1O[C@@H](c2cc(Cc3ccc(C4CC4)cc3)c(Cl)c3c2CCO3)[C@H](O)[C@@H](O)[C@@H]1O [Crystalline form A of enavogliflozin, enavogliflozin]	99.8	99.8	99.8	0	0.5	0.5	0.5	0.5	99.1	98.8	99.1	99.5	–
OC[C@H]1O[C@@H](c2cc(Cc3ccc(C4CC4)cc3)c(Cl)c3c2CCO3)[C@H](O)[C@@H](O)[C@@H]1O [Crystalline form E of enavogliflozin, enavogliflozin]	99.0	99.3	99.3	0	0.3	0.3	0.3	0.3	99.0	99.2	99.2	99.5	Stress stability, purity and crystalline form (in words) ([1]; 4 weeks at 93% RH): stably maintained; Hygroscopicity compared to crystalline form A (in words) ([2]; relative humidity 11% to 93%): more improved hygroscopicity; Stress stability, purity and crystalline form (in words) ([3]; 8 weeks at 60° C.): stably maintained; PK exposure parameters AUClast and AUCinf compared to crystalline form A (in words) [4, 5]: increased; Tmax reduction compared to crystalline form A [4, 5]: ≥ 1.25 times; AUC(0-inf) ([4]; male beagle dog, plasma): 4820 ng·h/mL; AUC(0-t) ([4]; male beagle dog, plasma): 4540 ng·h/mL; Cmax ([4]; male beagle dog, plasma): 470 ng/mL; Tmax ([4]; male beagle dog, plasma): 3.2 h; half-life ([4]; male beagle dog, plasma): 5.04 h
